According to ChEMBL document CHEMBL1127807 (J Med Chem, 1994):

Assays:
[1] = molecular target: Mu-type opioid receptor (Cavia porcellus, UniProt P97266); test: Tested for the binding affinity against the Mu opioid receptor in guinea pig brain using [3H]-DAMGO
[2] = molecular target: Opioid receptors; mu/kappa/delta (Homo sapiens, UniProt P41145+P41143+P35372); test: Tested for the binding affinity against the opioid receptor in guinea pig brain using [3H]bremazocine; design: species or system Cavia porcellus; details: target entry is the homologue from another species
[3] = molecular target: Kappa-type opioid receptor (Cavia porcellus, UniProt P41144); test: Tested for the binding affinity against the Kappa opioid receptor in guinea pig brain using [3H]U-69593
Chain of Kappa-type opioid receptor (P41144 whole entry): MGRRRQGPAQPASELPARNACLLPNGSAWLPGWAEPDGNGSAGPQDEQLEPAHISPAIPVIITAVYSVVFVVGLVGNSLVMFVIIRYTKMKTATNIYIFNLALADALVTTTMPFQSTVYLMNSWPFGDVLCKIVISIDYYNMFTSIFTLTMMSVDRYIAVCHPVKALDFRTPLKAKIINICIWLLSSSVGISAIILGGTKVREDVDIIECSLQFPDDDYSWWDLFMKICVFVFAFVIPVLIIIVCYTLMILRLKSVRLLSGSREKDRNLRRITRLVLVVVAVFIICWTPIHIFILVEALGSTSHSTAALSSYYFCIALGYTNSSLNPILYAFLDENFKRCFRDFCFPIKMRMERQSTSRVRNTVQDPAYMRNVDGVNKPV

Chain of Mu-type opioid receptor (P97266 whole entry): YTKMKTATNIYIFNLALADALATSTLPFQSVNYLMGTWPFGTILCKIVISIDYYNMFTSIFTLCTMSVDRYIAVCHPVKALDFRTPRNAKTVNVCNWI

Structure (SMILES)	IC50 [1]	IC50 [2]	IC50 [3]
Oc1ccc2c3c1OC1[C@@H](OCc4c5ccccc5cc5ccccc45)CCC4(O)C(C2)N(CC2CC2)CCC314 (some centres not stated)	6.6 nM	45 nM	34 nM
Oc1ccc2c3c1OC1[C@H](OCc4ccc5ccccc5c4)CCC4(O)C(C2)N(CC2CC2)CCC314 (some centres not stated)	1.7 nM	5 nM	1.5 nM
Oc1ccc2c3c1OC1[C@H](OCc4c5ccccc5cc5ccccc45)CCC4(O)C(C2)N(CC2CC2)CCC314 (some centres not stated)	16 nM	71 nM	27 nM
Oc1ccc2c3c1OC1[C@H](OCc4cccc5ccccc45)CCC4(O)C(C2)N(CC2CC2)CCC314 (some centres not stated)	3.1 nM	11 nM	6.1 nM
Oc1ccc2c3c1O[C@H]1[C@H](O)CC[C@@]4(O)[C@@H](C2)N(CC2CC2)CC[C@]314 (stereo in doubt; 6)	1.1 nM	–	2.6 nM
Oc1ccc2c3c1OC1[C@H](OCc4ccc(-c5ccccc5)cc4)CCC4(O)C(C2)N(CC2CC2)CCC314 (some centres not stated)	0.7 nM	3.3 nM	1.5 nM
Oc1ccc2c3c1OC1[C@H](OCc4ccccc4)CCC4(O)C(C2)N(CC2CC2)CCC314 (some centres not stated)	2.4 nM	3.4 nM	2 nM
O=C(COC1CCC2(O)C3Cc4ccc(O)c5c4C2(CCN3CC2CC2)C1O5)C1[C@H]2C[C@@H]3C[C@@H](C[C@H]1C3)C2 (some centres not stated)	6.6 nM	13 nM	3.3 nM
Oc1ccc2c3c1OC1[C@@H](OCc4ccccc4)CCC4(O)C(C2)N(CC2CC2)CCC314 (some centres not stated)	0.3 nM	1.5 nM	0.6 nM
Oc1ccc2c3c1OC1[C@@H](OCc4cccc5ccccc45)CCC4(O)C(C2)N(CC2CC2)CCC314 (some centres not stated)	1 nM	7.3 nM	4.4 nM
Oc1ccc2c3c1O[C@H]1[C@H](O)CC[C@@]4(O)[C@@H](C2)N(CC2CC2)CC[C@]314 (stereo in doubt; 7)	0.5 nM	–	1.8 nM
Oc1ccc2c3c1OC1[C@@H](OCc4ccc(-c5ccccc5)cc4)CCC4(O)C(C2)N(CC2CC2)CCC314 (some centres not stated)	10 nM	28 nM	12 nM
Oc1ccc2c3c1OC1[C@@H](OCc4ccc5ccccc5c4)CCC4(O)C(C2)N(CC2CC2)CCC314 (some centres not stated)	1.2 nM	4.7 nM	1.4 nM
